Molecular target: T1, Gq coupled P2u purinergic receptor (THP-1) (Homo sapiens, UniProt P41231)
T1 construct: human monocytic leukemia cell line that carried the Gq coupled P2u purinergic receptor (THP-1); endogenous in cells; host or cells: THP-1 (human monocytic leukemia cell line)
Assay: model calcium flux assay in THP-1 cells in a microfluidic device
Assay type: cell-based
Conditions: THP-1 cells preloaded with Fluo-3 or Fluo-4; UTP 100, 300, 1000 and 3000 nM; detection 15 seconds after exposure
Text: The device shown in FIG. 1A was used to test the dose response of a human monocytic leukemia cell line that carried the Gq coupled P2u purinergic receptor (THP-1), as a model calcium flux assay. Briefly, a phospholipase C/IP3/calcium signal transduction pathway is activated when the receptor binds to its ligand UTP. When the cells are preloaded with a calcium sensitive indicator, i.e., Fluo-3 or Fluo-4 (available from Molecular Probes, Eugene, Oreg.). The transient increase in intracellular calcium is then detected as a fluorescent signal.
In the present example, THP-1 cells were preloaded with Fluo-3 or Fluo-4, as well as a nucleic acid stain (Syto-62 from Molecular Probes). The cells were washed and resuspended in Cell Buffer (1.56 ml HBSS, 0.94 ml 33% Ficoll, 5 μl HEPES (1 M stock), 25 μl 100× PBC, 25 μl 10% BSA, and 0.546 ml OPTI-Prep (65% stock)) and added to reservoir 106. Different concentrations of UTP in Cell Buffer (100, 300, 1000 and 3000 nM, respectively) were then added to reagent reservoirs 110-116. […]
In order to monitor the stepwise increase of each UTP reagent solution, an additional marker solution, BODIPY-arginine, was added to the reagent reservoirs 110-116. […] Briefly, the slope of calcium signal (response) vs. Syto 62 signal (cell number) was calculated for each UTP concentration. […]

T1 sequence (P41231 whole entry): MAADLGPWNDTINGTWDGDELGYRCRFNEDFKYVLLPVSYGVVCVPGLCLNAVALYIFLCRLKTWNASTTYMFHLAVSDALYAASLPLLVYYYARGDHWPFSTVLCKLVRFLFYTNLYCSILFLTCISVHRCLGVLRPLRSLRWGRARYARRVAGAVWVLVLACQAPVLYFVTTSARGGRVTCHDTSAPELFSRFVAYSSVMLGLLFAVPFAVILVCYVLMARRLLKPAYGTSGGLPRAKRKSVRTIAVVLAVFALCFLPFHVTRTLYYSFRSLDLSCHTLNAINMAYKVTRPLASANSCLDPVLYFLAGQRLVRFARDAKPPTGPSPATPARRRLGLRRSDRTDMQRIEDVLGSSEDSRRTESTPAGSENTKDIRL

O=c1ccn([C@@H]2O[C@H](COP(=O)(O)OP(=O)(O)OP(=O)(O)O)[C@@H](O)[C@H]2O)c(=O)[nH]1 [UTP]
calcium signal (fluorescent peaks from each cell) with stepwise addition of UTP: increase discernibly in size
